Holding throughout (format): cell-based
In experiment [1] the test system is S. uberis ATCC 19436. Put plainly: MIC by broth microdilution, S. uberis. The following applies: Streptococcus uberis. An outline of the steps:
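This broth microdilution assay used S. uberis ATCC 19436 in Todd Hewitt Broth, with zinc sulphate heptahydrate added where required to a final 50 μM. Inhibitor concentration ranges came from two-fold serial dilutions in 96-well flat bottom plates at 200 μl. Approximately 5×10^5 cfu/mL cells were incubated for 24 h at 37° C. and 200 rpm. Wells were then read at OD600 on a Varioskan Flash reader.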
(In general: Dilution methods test growth across graded concentrations, often in twofold steps.)

The subject of experiment [2] is S. aureus ATCC 6538. Put plainly: MIC by broth microdilution, S. aureus. As to conditions: Staphylococcus aureus. An outline of the steps:
(§1)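 Overnight cultures diluted to ~5×10^5 cfu/mL final; S. aureus in TSB and CAMHB, E. coli in LB and CAMHB, zinc sulphate to 50 μM final as required; two-fold serial dilutions. MIC = lowest concentration with no growth by OD600 after 24 h, 37° C, 200 rpm. MBC by Miles-Misra drop-plate viability count.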

Another experiment deals with E. coli ATCC 10596. Put plainly: MIC by broth microdilution, E. coli. As to conditions: Escherichia coli. An outline of the steps:
as §1

Experiment [3] concerns S. uberis ATCC 19436. Put plainly: MBC by Miles-Misra drop-plate method, S. uberis. The following applies: Streptococcus uberis. Here is the method:
(§2) Antibacterial susceptibility testing was performed in triplicate (biological) by measuring minimum inhibitory concentrations (MICs) by broth microdilution in 96-well flat bottom microtiter plates (ThermoFisher Scientific, New Zealand). S. uberis ATCC 19436, S. aureus ATCC 6538, or E. coli ATCC 10596 cells grown overnight were diluted to an OD600 of approximately 0.025, so that the final concentration of cells in the MIC assay was approximately 5×10^5 cfu/mL in media as follows: S. uberis; Todd Hewitt Broth (THB), S. aureus; Tryptic Soy Broth (TSB) and Cation Adjusted Muller Hinton Broth (CAMHB), and E. coli; Lysogeny Borth (LB) and CAMHB, before being dispensed into microtiter wells. As required additional sterile Zinc Sulphate (Heptahydrate) was supplemented into the media, so the final concentration was 50 μM. Test compounds were added to starting wells and two-fold serial dilutions were undertaken to generate a range of inhibitor concentrations at a final volume of 200 μl. Media and test compound-free (untreated) controls were included in each microtiter plate in triplicate. After 24 h incubation at 37° C. and 200 rpm, the OD600 of wells were read using a Varioskan Flash plate reader (ThermoFisher Scientific, New Zealand). The MIC was reported as the lowest concentration of the test compound for which no growth occurred, as determined by OD600 readings. The minimum bactericidal concentration (MBC) was determined using the Miles-Misra drop-plate method to measure the viability of cells in response to test compound challenge.

Experiment [4] concerns S. aureus ATCC 6538. Put plainly: MBC by Miles-Misra drop-plate method, S. aureus. As to conditions: Staphylococcus aureus. Here is the method: as §2
The next experiment deals with E. coli ATCC 10536. Put plainly: MBC by Miles-Misra drop-plate method, E. coli. As to conditions: Escherichia coli. The protocol: as §2
The mark [5] stands for this setting: ATCC19436, read-out: S. uberis ATCC 19436 MIC, No Zinc.
Setting [6] is: ATCC19436, read-out: S. uberis ATCC 19436 MIC, Zinc (50 μM).
Setting [7] is: ATCC6538, read-out: S. aureus ATCC 6538 MIC, No Zinc.
[8] abbreviates: ATCC6538, read-out: S. aureus ATCC 6538 MIC, Zinc (50 μM).
The mark [9] stands for this setting: ATCC 10536 / ATCC 10596, read-out: E. coli ATCC 10536 MIC, No Zinc.
[10] abbreviates: ATCC 10536 / ATCC 10596, read-out: E. coli ATCC 10536 MIC, Zinc (50 μM).
Setting [11] is: ATCC19436, read-out: S. uberis ATCC 19436 MBC, No Zinc.
Setting [12] is: ATCC19436, read-out: S. uberis ATCC 19436 MBC, Zinc (50 μM).
Where [13] appears, read: ATCC6538, read-out: S. aureus ATCC 6538 MBC, No Zinc.
The mark [14] stands for this setting: ATCC6538, read-out: S. aureus ATCC 6538 MBC, Zinc (50 μM).
Setting [15] is: ATCC10536, read-out: E. coli ATCC 10536 MBC, No Zinc.
Where [16] appears, read: ATCC10536, read-out: E. coli ATCC 10536 MBC, Zinc (50 μM).
[17] abbreviates: ATCC19436, No Zinc, read-out: S. uberis ATCC 19436 MIC.
The mark [18] stands for this setting: ATCC19436, Zinc (50 μM), read-out: S. uberis ATCC 19436 MIC.
The mark [19] stands for this setting: ATCC6538, No Zinc, read-out: S. aureus ATCC 6538 MIC.
The mark [20] stands for this setting: ATCC6538, Zinc (50 μM), read-out: S. aureus ATCC 6538 MIC.
Setting [21] is: ATCC 10536 / ATCC 10596, No Zinc, read-out: E. coli ATCC 10536 MIC.
The mark [22] stands for this setting: ATCC 10536 / ATCC 10596, Zinc (50 μM), read-out: E. coli ATCC 10536 MIC.
Setting [23] is: ATCC19436, No Zinc, read-out: S. uberis ATCC 19436 MBC.
[24] abbreviates: ATCC19436, Zinc (50 μM), read-out: S. uberis ATCC 19436 MBC.
The mark [25] stands for this setting: ATCC6538, No Zinc, read-out: S. aureus ATCC 6538 MBC.
[26] abbreviates: ATCC6538, Zinc (50 μM), read-out: S. aureus ATCC 6538 MBC.
Setting [27] is: ATCC10536, No Zinc, read-out: E. coli ATCC 10536 MBC.
[28] abbreviates: ATCC10536, Zinc (50 μM), read-out: E. coli ATCC 10536 MBC.

≈ marks a conversion by molar mass, not a printed value. Structures can show the parent of a compound that is named as a salt. Where two headings read alike, the source gives them in different places. A value given as a limit tells only on which side of the number the result lay.

With `N=C(N)NCc1ccc2cccc(NS(=O)(=O)c3ccc(C(F)(F)F)cc3)c2n1` [ZDR187, N-(2-(Guanidinomethyl)quinolin-8-yl)-4-(trifluoromethyl)benzenesulfonamide trifluoroacetate], the MIC came out at 16 µg/mL with S. uberis ATCC 19436 [1] (setting [5]); 0.5 µg/mL in the experiment with S. uberis ATCC 19436 [1] (setting [6]); 8 µg/mL in the experiment on S. aureus ATCC 6538 [2] (setting [7]); 8 µg/mL in the experiment on S. aureus ATCC 6538 [2] (setting [8]); 32 µg/mL in the experiment on E. coli ATCC 10596 (setting [9]); 16 µg/mL with E. coli ATCC 10596 (setting [10]). The MBC worked out at 16 µg/mL with S. uberis ATCC 19436 [3] (setting [11]); 8 µg/mL in the experiment on S. uberis ATCC 19436 [3] (setting [12]); 32 µg/mL in the experiment on S. aureus ATCC 6538 [4] (setting [13]); 32 µg/mL in the experiment on S. aureus ATCC 6538 [4] (setting [14]); 64 µg/mL with E. coli ATCC 10536 (setting [15]); 16 µg/mL in the experiment on E. coli ATCC 10536 (setting [16]).
For `O=S(=O)(Nc1cccc2ccc(CNCCCN3CCCCC3)nc12)c1ccc(C(F)(F)F)cc1` [ZDR115, N-(2-(((3-(Piperidin-1-yl)propyl)amino)methyl)quinolin-8-yl)-4-(trifluoromethyl)benzenesulfonamide di-trifluoroacetate], the MIC with S. uberis ATCC 19436 [1] (setting [5]) turned out to be 4 µg/mL (≈ 7.9 µM); in the experiment with S. uberis ATCC 19436 [1] (setting [6]) it was 2 µg/mL (≈ 3.95 µM); with S. aureus ATCC 6538 [2] (setting [7]) it was 16 µg/mL (≈ 31.6 µM); in the experiment on S. aureus ATCC 6538 [2] (setting [8]), 16 µg/mL (≈ 31.6 µM); in the experiment with E. coli ATCC 10596 (setting [9]), 16 µg/mL (≈ 31.6 µM); in the experiment on E. coli ATCC 10596 (setting [10]), 16 µg/mL (≈ 31.6 µM). The MBC in the experiment on S. uberis ATCC 19436 [3] (setting [11]) came to 8 µg/mL (≈ 15.8 µM); with S. uberis ATCC 19436 [3] (setting [12]), 4 µg/mL (≈ 7.9 µM); in the experiment with S. aureus ATCC 6538 [4] (setting [13]), 16 µg/mL (≈ 31.6 µM); in the experiment on S. aureus ATCC 6538 [4] (setting [14]), 16 µg/mL (≈ 31.6 µM); in the experiment on E. coli ATCC 10536 (setting [15]), 16 µg/mL (≈ 31.6 µM); in the experiment with E. coli ATCC 10536 (setting [16]) it was 16 µg/mL (≈ 31.6 µM).
Turning to `O=S(=O)(Nc1cccc2ccc(CNCCCO)nc12)c1ccc(C(F)(F)F)cc1` [ZDR091, N-(2-(((3-Hydroxypropyl)amino)methyl)quinolin-8-yl)-4-(trifluoromethyl)benzenesulfonamide], the MIC with S. uberis ATCC 19436 [1] (setting [17]) was determined as 32 µg/mL (≈ 72.8 µM); in the experiment on S. uberis ATCC 19436 [1] (setting [18]) it was 0.125 µg/mL (≈ 0.284 µM); in the experiment on S. aureus ATCC 6538 [2] (setting [19]), 64 µg/mL (≈ 146 µM); in the experiment with S. aureus ATCC 6538 [2] (setting [20]) it was 32 µg/mL (≈ 72.8 µM); in the experiment with E. coli ATCC 10596 (setting [21]), 256 µg/mL (≈ 583 µM); in the experiment with E. coli ATCC 10596 (setting [22]) it was 256 µg/mL (≈ 583 µM). Moreover, the MBC with S. uberis ATCC 19436 [3] (setting [23]) is 16 µg/mL (≈ 36.4 µM); in the experiment on S. uberis ATCC 19436 [3] (setting [24]), 0.5 µg/mL (≈ 1.14 µM); with S. aureus ATCC 6538 [4] (setting [25]), greater than 256 µg/mL; in the experiment with S. aureus ATCC 6538 [4] (setting [26]), 128 µg/mL (≈ 291 µM); with E. coli ATCC 10536 (setting [27]) it was 256 µg/mL (≈ 583 µM); with E. coli ATCC 10536 (setting [28]) it was 128 µg/mL (≈ 291 µM).
Consider `O=S(=O)(Nc1cccc2ccc(/C=N/NC(=S)NCCN3CCOCC3)nc12)c1ccc(C(F)(F)F)cc1` [ZDR119, (E)-N-(2-Morpholinoethyl)-2-((8-((4-(trifluoromethyl)phenyl)sulfonamido)quinolin-2-yl)methylene)hydrazine-1-carbothioamide], for which the minimum inhibitory concentration (MIC) with S. uberis ATCC 19436 [1] (setting [17]) is 4 µg/mL (≈ 7.06 µM); in the experiment on S. uberis ATCC 19436 [1] (setting [18]), 0.125 µg/mL (≈ 0.221 µM); in the experiment on S. aureus ATCC 6538 [2] (setting [19]), 4 µg/mL (≈ 7.06 µM); with S. aureus ATCC 6538 [2] (setting [20]), 4 µg/mL (≈ 7.06 µM); in the experiment on E. coli ATCC 10596 (setting [21]), greater than 256 µg/mL; in the experiment with E. coli ATCC 10596 (setting [22]), greater than 256 µg/mL. In addition, the MBC in the experiment on S. uberis ATCC 19436 [3] (setting [23]) was 16 µg/mL (≈ 28.2 µM); in the experiment with S. uberis ATCC 19436 [3] (setting [24]), 1 µg/mL (≈ 1.76 µM); with S. aureus ATCC 6538 [4] (setting [25]) it was greater than 256 µg/mL; in the experiment on S. aureus ATCC 6538 [4] (setting [26]), 32 µg/mL (≈ 56.5 µM); in the experiment on E. coli ATCC 10536 (setting [27]), greater than 256 µg/mL; with E. coli ATCC 10536 (setting [28]) it was greater than 256 µg/mL.
As to `O=C(N/N=C/c1ccc2cccc(NS(=O)(=O)c3ccc(C(F)(F)F)cc3)c2n1)c1ccncc1` [ZDR122, (E)-N-(2-((2-Isonicotinoylhydrazneylidene)methyl)quinolin-8-yl)-4-(trifluoromethyl)benzenesulfonamide], the MIC with S. uberis ATCC 19436 [1] (setting [17]) was 32 µg/mL (≈ 64.1 µM); in the experiment with S. uberis ATCC 19436 [1] (setting [18]) it was 2 µg/mL (≈ 4 µM); with S. aureus ATCC 6538 [2] (setting [19]), 16 µg/mL (≈ 32 µM); in the experiment with S. aureus ATCC 6538 [2] (setting [20]) it was 16 µg/mL (≈ 32 µM); in the experiment on E. coli ATCC 10596 (setting [21]), greater than 256 µg/mL; in the experiment on E. coli ATCC 10596 (setting [22]), greater than 256 µg/mL. Moreover, the MBC in the experiment on S. uberis ATCC 19436 [3] (setting [23]) is 128 µg/mL (≈ 256 µM); with S. uberis ATCC 19436 [3] (setting [24]), 32 µg/mL (≈ 64.1 µM); with S. aureus ATCC 6538 [4] (setting [25]) it was 32 µg/mL (≈ 64.1 µM); in the experiment with S. aureus ATCC 6538 [4] (setting [26]), 128 µg/mL (≈ 256 µM); in the experiment on E. coli ATCC 10536 (setting [27]), greater than 256 µg/mL; in the experiment on E. coli ATCC 10536 (setting [28]), greater than 256 µg/mL.

The MIC is the lowest concentration that inhibits growth of the organism. As usually defined, the MBC is the lowest tested concentration that kills the bacteria rather than only halting them.

For the origin of these results see patent US11691949B2, “Quinoline sulfonamide compounds and their use as antibacterial agents” (OTAGO INNOVATION LIMITED, priority 2017, dated 2023).
